Laboratory results taken from patent publication US9796671B2, “Aurora kinase inhibitors” (REGENTS OF THE UNIVERSITY OF MINNESOTA, priority 2012, dated 2017).

Tests used:
Aurora A = molecular target: T1, Aurora A (Homo sapiens, UniProt O14965); experiment: Aurora A in vitro kinase assay; type: biochemical; details: 1 μM, compared with control
T1 construct: purchased Millipore
T1 sequence (O14965 1-403): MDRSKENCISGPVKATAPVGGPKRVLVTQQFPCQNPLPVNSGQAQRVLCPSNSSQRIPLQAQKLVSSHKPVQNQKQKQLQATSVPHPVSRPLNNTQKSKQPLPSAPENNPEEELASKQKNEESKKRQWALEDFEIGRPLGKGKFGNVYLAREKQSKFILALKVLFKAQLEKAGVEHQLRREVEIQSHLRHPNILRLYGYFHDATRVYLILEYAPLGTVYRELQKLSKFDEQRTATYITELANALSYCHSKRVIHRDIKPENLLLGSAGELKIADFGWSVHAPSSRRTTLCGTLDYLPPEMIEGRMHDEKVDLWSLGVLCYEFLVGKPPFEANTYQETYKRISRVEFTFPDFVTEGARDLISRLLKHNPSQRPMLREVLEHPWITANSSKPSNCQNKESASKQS
Method: Proteins are resolved by SDS-PAGE and transferred onto polyvinylidene difluoride membranes (Millipore, Mass.), which are blocked with nonfat milk and hybridized with specific primary antibodies. The protein bands are visualized using an enhanced chemiluminescence reagent (GE Healthcare, Pittsburgh, Pa.) after hybridization with a horseradish peroxidase-conjugated secondary antibody. […] Reactions are carried out in 1× kinase buffer (25 mM Tris-HCl pH 7.5, 5 mM beta-glycerophosphate, 2 mM dithiothreitol (DTT), 0.1 mM Na3VO4, 10 mM MgCl2 and 5 mM MnCl2) containing 100 μM ATP at 30° C. for 30 minutes. Reactions are stopped and proteins detected by Western blotting. An in vitro kinase assay was used to determine whether Compound 1 could inhibit Aurora B kinase activity using recombinant Aurora B protein and various concentrations of Compound 1. […] The effect of Compound 1 on Aurora A kinase activity using an in vitro kinase assay was also examined.

A549 lung cancer cells = experiment: Cytotoxicity (MTS assay); type: cell-based, human
Method: To estimate the cytotoxicity of Compound 1, cells are seeded (8×10^3 cells per well) in 96-well plates and cultured overnight. Cells are fed with fresh medium and treated with different doses of Compound 1. After culturing for various times, the cytotoxicity of Compound 1 is measured using an MTS assay kit (Promega, Madison, Wis.) according to the manufacturer's instructions.
The toxicity of Compound 1 on both MRC-5 normal lung cells and A549 lung cancer cells was then examined.

A549 cells = experiment: Anchorage-independent growth of human lung cancer cells; type: cell-based
Method: (§1) Tumor cells are suspended in basal medium Eagle (BME) medium and added to 0.6% agar, with different concentrations of Compound 1 in a base layer and a top layer of 0.3% agar. The cultures are maintained at 37° C. in a 5% CO2 incubator for 1 to 2 weeks and then colonies are counted under a microscope using the Image-Pro Plus software (v.4) program (Media Cybernetics, Silver Spring, Md.).
(§2) The effect of Compound 1 treatment on anchorage-independent growth of human lung cancer cells, including A549, H1650, and H520 cells was then examined. […] Compound 1 at 0.5 or 1 μM caused a decrease of more than 80% or 90% compared to control in all cell lines detected.

H1650 cells = experiment: as above; type: cell-based
Method: as §1, §2

H520 cells = experiment: as above; type: cell-based
Method: as §1, §2

HCT116 p53+/+ cells = experiment: Soft agar assay, p53 wildtype colon cancer cells; type: cell-based
Method: as §1
The effect of compound 1 in a pair of colon cancer cell lines, p53 wildtype (HCT116 p53^+/+) and p53-deficient (HCT116 p53^−/−) cells was also examined to determine whether the sensitivity of cells to compound 1 directly correlates with the status of p53 in cells.

[1] = test system: A549 cells transfected with Aurora B shRNA; experiment: Anchorage-independent growth, Aurora B knockdown cells; type: cell-based; details: Homo sapiens
Method: as §1
The effect of knocking down Aurora B expression in A549 cancer cells on the cell's sensitivity to Compound 1 was evaluated. […] Compound 1 (0.5 μM) inhibited anchorage-independent growth of A549 cells transfected with mock shRNA by about 90%.

Akt1 = Akt1 (Homo sapiens, UniProt P31749); experiment: Akt1 in vitro kinase assay; type: biochemical
Sequence of Akt1 (P31749 whole entry, species assumed): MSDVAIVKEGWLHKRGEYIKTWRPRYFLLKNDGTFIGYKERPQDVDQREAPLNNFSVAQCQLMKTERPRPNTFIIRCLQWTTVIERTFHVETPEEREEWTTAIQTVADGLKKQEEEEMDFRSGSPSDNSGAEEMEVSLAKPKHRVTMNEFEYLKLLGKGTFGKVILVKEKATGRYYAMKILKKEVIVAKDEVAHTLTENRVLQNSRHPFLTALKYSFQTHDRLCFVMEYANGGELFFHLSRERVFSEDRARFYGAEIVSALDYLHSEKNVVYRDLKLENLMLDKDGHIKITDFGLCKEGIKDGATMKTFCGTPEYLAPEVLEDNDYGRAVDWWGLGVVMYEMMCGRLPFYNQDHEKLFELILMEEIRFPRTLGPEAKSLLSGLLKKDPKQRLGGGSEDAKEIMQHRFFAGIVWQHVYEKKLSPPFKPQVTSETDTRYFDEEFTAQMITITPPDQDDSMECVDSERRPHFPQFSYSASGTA
Method: According to the kinase profiler assay results, Akt2 also might be a potential target of Compound 1. An Akt1 and Akt2 in vitro kinase assays was performed.

[2] = test system: human A549 lung cancer cell xenografts; experiment: A549 xenograft in athymic nude mice, intraperitoneal; type: in vivo
Method: Tumor tissues from mice are embedded in a paraffin block and subjected to hematoxylin and eosin (H&E) staining and immunohistochemistry. Tumor tissues are deparaffinized and hydrated, then permeabilized with 0.5% Triton X-100/1 PBS for 10 min, hybridized with Ki-67 (1:500) as the primary antibody and an HRP-conjugated goat anti-rabbit or mouse IgG antibody is used as the secondary antibody. After developing with 3,30-diaminobenzidine, the sections are counterstained with H&E. All sections are observed by microscope and the Image-Pro Plus software (v.4) program (Media Cybernetics).
The ability of Compound 1 to inhibit the growth of human A549 lung cancer cell xenografts in athymic nude mice was then evaluated. Tumor volumes were measured twice a week and mouse weights were determined once a week. Compound 1 caused a marked reduction in tumor size in the human A549 xenograft model. In mice treated with Compound 1 at 20 mg/kg, twice a week intraperitoneally, mean tumor volumes were reduced to 164 mm^3 in comparison with control group (408 mm^3) (P<0.01). […] Moreover, the effects of Compound 1 on a tumor proliferation marker were evaluated by immunohistochemistry and H&E staining of A549 tumor tissues after the 31 days of treatment.

With `O=C(/C=C/c1ccc2c(c1)OCO2)/C=C1/C(=O)Nc2ccccc21` [Compound 1] the “effect on histone H3 (Ser10) phosphorylation by Aurora A” value (Aurora A) was “No effect”, the “cytotoxic effects on A549 lung cancer cells” value (A549 lung cancer cells; 1 μM or less) was “no obvious cytotoxic effects” and the “toxicity toward A549 cancer cells” value (A549 lung cancer cells; 5 μM, 48 hours) was “weak toxicity”. The “toxicity on A549 lung cancer cells” value (A549 lung cancer cells; concentrations greater than 10 μM) was “substantial toxicity”, the “decrease of anchorage-independent growth compared to control” value (from here on “decrease of anchorage-independent growth”) (A549 cells; A549, 0.5 μM) was “more than 80%” and the “decrease of anchorage-independent growth” value (A549 cells; A549, 1 μM) was > 90%. For the same compound, the “decrease of anchorage-independent growth” value (H1650 cells; H1650, 0.5 μM) was “more than 80%”, the “decrease of anchorage-independent growth” value (H1650 cells; H1650, 1 μM) was > 90% and the “decrease of anchorage-independent growth” value (H520 cells; H520, 0.5 μM) was “more than 80%”. The “decrease of anchorage-independent growth” value (H520 cells; H520, 1 μM) was > 90%, the “inhibition of growth in soft agar” value (HCT116 p53+/+ cells; 0.05 μM) was “no inhibition” and the inhibition at 0.1 µM (HCT116 p53+/+ cells; Homo sapiens, HCT-116, 0.1 μM, read-out: inhibition of growth in soft agar) was 55%. For the same compound, the inhibition at 0.5 µM [1] was < 40%, the inhibition at 5 µM (Akt1; 5 μM) was 32% and the “concentration inhibiting Akt1 kinase activity in vitro” value (Akt1; discussion statement) was ≥ 1 µM. For the same compound, the “loss of body weight” value ([2]; 20 mg/kg, twice a week intraperitoneally) was “no obvious loss”, the mean tumor volume ([2]; 20 mg/kg, twice a week intraperitoneally, control group 408 mm^3, P<0.01) was 164 mm^3 and the “expression of Ki-67 in A549 tumor tissues (immunohistochemistry)” value ([2]; after the 31 days of treatment) was “markedly decreased”.
